SMILES strings stand for the structures.

This experiment concerns the target T1, MAGL (Homo sapiens, UniProt Q99685).
T1 sequence (Q99685 1-303): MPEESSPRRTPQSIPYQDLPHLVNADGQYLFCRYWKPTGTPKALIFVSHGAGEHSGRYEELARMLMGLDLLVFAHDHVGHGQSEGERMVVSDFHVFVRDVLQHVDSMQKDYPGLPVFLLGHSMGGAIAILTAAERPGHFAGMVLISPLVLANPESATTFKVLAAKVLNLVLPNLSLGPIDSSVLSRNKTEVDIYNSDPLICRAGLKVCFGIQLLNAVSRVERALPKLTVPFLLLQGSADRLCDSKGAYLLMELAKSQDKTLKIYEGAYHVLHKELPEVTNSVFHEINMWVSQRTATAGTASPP
Kind of experiment: 2-AG assay (MAGL inhibitory activity; hydrolysis of 2-arachidonoylglycerol to arachidonic acid followed by mass spectrometry). The class given is biochemical. The note with it: 8 μM 2-arachidonoylglycerol, 15 min pre-incubation, 30 min incubation at rt, RapidFire MS read-out. The protocol:
Compounds were profiled for MAGL inhibitory activity by determining the enzymatic activity by following the hydrolysis of the natural substrate 2-arachidonoylglycerol resulting in arachidonic acid, which can be followed by mass spectrometry. This assay is hereinafter abbreviated “2-AG assay”.
A C18 SPE cartridge (G9205A) was used in an ACN/water liquid setup. […] The activity of the compounds was calculated based on the ratio of intensities [arachidonic acid/d8-arachidonic acid].

Broadly, the IC50 is the concentration that gives 50% inhibition. As for `O=C1CO[C@H]2CCN(C(=O)N3CCC(C(c4ccc(F)cc4)c4ccc(F)cc4)CC3)C[C@@H]2N1` (single isomer, unassigned) [Example 25, (−)- or (+)-trans-6-[4-[Bis(4-fluorophenyl)methyl]piperidine-1-carbonyl]-4,4a,5,7,8,8a-hexahydropyrido[4,3-b][1,4]oxazin-3-one], the IC50 came to 5 nM.
To `O=C1CO[C@@H]2CCN(C(=O)N3CCC4(CC3)CC(Oc3ccc(C(F)(F)F)cc3F)C4)C[C@H]2N1` (single isomer, unassigned) [Example 26, (+)- or (−)-trans-6-[2-[2-Fluoro-4-(trifluoromethyl)phenoxy]-7-azaspiro[3.5]nonane-7-carbonyl]-4,4a,5,7,8,8a-hexahydropyrido[4,3-b][1,4]oxazin-3-one] belongs 118 nM.
Take `O=C1CO[C@H]2CCN(C(=O)N3CCC4(CC3)CC(Oc3ccc(C(F)(F)F)cc3F)C4)C[C@@H]2N1` (single isomer, unassigned) [Example 27, (−)- or (+)-trans-6-[2-[2-Fluoro-4-(trifluoromethyl)phenoxy]-7-azaspiro[3.5]nonane-7-carbonyl]-4,4a,5,7,8,8a-hexahydropyrido[4,3-b][1,4]oxazin-3-one]: the IC50 worked out at 7 nM.
To `O=C1CO[C@@H]2CCN(C(=O)N3CCC(Cc4ccc(C(F)(F)F)cc4)CC3)C[C@H]2N1` (single isomer, unassigned) [Example 28, (+)- or (−)-trans-6-[4-[[4-(Trifluoromethyl)phenyl]methyl]piperidine-1-carbonyl]-4,4a,5,7,8,8a-hexahydropyrido[4,3-b][1,4]oxazin-3-one] belongs 2560 nM; to `O=C1CO[C@H]2CCN(C(=O)N3CCC(Cc4ccc(C(F)(F)F)cc4)CC3)C[C@@H]2N1` (single isomer, unassigned) [Example 29, (−)- or (+)-trans-6-[4-[[4-(Trifluoromethyl)phenyl]methyl]piperidine-1-carbonyl]-4,4a,5,7,8,8a-hexahydropyrido[4,3-b][1,4]oxazin-3-one], 1300 nM.
Take `O=C1CO[C@H]2CCN(C(=O)N3CCC(c4cn(CCO)c5ccc(Cl)cc45)CC3)C[C@@H]2N1` (single isomer, unassigned) [Example 30, (−)- or (+)-trans-6-[4-[5-Chloro-1-(2-hydroxyethyl)indol-3-yl]piperidine-1-carbonyl]-4,4a,5,7,8,8a-hexahydropyrido[4,3-b][1,4]oxazin-3-one]: the 50% inhibitory concentration (IC50) stood at 530 nM.

(Values after patent US20220106328A1, “HETEROCYCLIC COMPOUNDS” (Hoffmann-La Roche Inc., priority 2019, published 2022).)
